One series concerns the target cdc2/cyclinB (Homo sapiens, UniProt P06493). Briefly: cdc2/cyclinB kinase assay (Table 1, CdkB). Type of series: biochemical. The note with it: 32P incorporation into retinoblastoma, 25° C., 15 minutes. The method, then:
(§1) All components except the ATP were added to the wells, and the plate was placed on a plate mixer for 2 minutes. The reaction was begun by addition of [^32P]ATP, and the plate was incubated at 25° C. for 15 minutes. The reaction was terminated by addition of 0.1 mL of 20% TCA. The plate was kept at 4° C. for at least 1 hour to allow the substrate to precipitate. The wells were then washed five times with 0.2 mL of 10% TCA and ^32P incorporation determined with a beta plate counter (Wallac Inc., Gaithersburg, Md.).

The next series addresses cdk2/A (Homo sapiens, UniProt P24941). Briefly: cdk2/A kinase assay. Type of series: biochemical. The note with it: 32P incorporation into retinoblastoma, 25° C., 15 minutes; read-out: Cdk2A IC50. The protocol:
as §1

The next series deals with cdk2/cyclinE (Homo sapiens, UniProt P24941). Briefly: cdk2/cyclinE kinase assay. The note with it: 32P incorporation into retinoblastoma, 25° C., 15 minutes; read-out: Cdk2E IC50. The format is biochemical. The protocol: as §1
The target in another series is cdk4/D (Homo sapiens, UniProt P11802). Briefly: Cyclin-Dependent Kinase 4 (cdk4) Assay. The format is biochemical. The method, then:
As noted above, the compounds of this invention are potent inhibitors of cyclin-dependent kinases, and accordingly, are useful in treating and preventing neurodegenerative disorders, atherosclerosis, and other cell proliferative disorders like cancer. […] A typical assay, for instance, measures inhibitory activity against the cyclin D dependent kinase 4 enzyme (cdk4/D). […] The cdk4 assay was carried out as follows.
Cyclin-Dependent Kinase 4 (cdk4) Assay
Enzyme assays for IC50 determinations (Table 1 above) and kinetic evaluation were performed in 96 well filter plates (Millipore MADVN6550). The total volume was 0.1 mL containing a final concentration of 20 mM TRIS (tris[hydroxymethyl]aminomethane), at pH 7.4, 50 mM NaCl, 1 mM dithiothreitol, 10 mM MgCl2, 25 μM ATP containing 0.25 μCi of [^32P]ATP, 20 ng of cdk4, 1 μg of retinoblastoma, and appropriate dilutions of a compound of the present invention. All components except the ATP were added to the wells, and the plate was placed on a plate mixer for 2 minutes. The reaction was started by adding [^32P]ATP and the plate was incubated at 25° C. for 15 minutes. The reaction was terminated by addition of 0.1 mL of 20% trichloroacetic acid (TCA). The plate was kept at 4° C. for at least 1 hour to allow the substrate to precipitate. The wells were then washed five times with 0.2 mL of 10% TCA and ^32P incorporation was determined with a beta plate counter (Wallac Inc., Gaithersburg, Md.).

Setting [1] is: 25 μM ATP, retinoblastoma substrate, 25° C., 15 minutes, read-out: Cdk4 IC50.

Where two headings read alike, the source gives them in different places. Some results are limits rather than exact numbers.

As usually defined, the IC50 is the concentration needed to halve the response being measured. In general, melting point refers to the temperature, or range, at which the solid turns liquid.

cdc2/cyclinB, sequence (P06493 whole entry, species assumed): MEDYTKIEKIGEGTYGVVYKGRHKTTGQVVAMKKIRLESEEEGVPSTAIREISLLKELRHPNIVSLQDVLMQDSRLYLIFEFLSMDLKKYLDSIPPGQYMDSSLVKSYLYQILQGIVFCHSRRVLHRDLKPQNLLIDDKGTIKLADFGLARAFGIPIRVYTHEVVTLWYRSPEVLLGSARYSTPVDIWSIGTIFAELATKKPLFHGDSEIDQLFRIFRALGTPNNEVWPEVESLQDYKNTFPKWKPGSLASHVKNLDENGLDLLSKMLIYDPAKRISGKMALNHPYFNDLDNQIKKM
cdc2/cyclinB, sequence (P14635 whole entry partner, species assumed): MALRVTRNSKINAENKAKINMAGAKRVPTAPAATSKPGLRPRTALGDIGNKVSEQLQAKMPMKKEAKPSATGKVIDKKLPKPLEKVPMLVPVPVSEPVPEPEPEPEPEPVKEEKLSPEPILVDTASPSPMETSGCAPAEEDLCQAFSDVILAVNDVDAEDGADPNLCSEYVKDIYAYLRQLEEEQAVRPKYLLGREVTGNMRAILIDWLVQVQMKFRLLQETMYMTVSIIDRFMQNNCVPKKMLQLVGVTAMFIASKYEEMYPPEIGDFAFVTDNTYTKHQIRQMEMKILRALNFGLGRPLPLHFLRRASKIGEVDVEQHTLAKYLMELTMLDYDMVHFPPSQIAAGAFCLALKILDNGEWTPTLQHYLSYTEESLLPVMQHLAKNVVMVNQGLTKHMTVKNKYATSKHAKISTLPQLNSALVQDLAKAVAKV
cdk4/D, sequence (P11802 whole entry, species assumed): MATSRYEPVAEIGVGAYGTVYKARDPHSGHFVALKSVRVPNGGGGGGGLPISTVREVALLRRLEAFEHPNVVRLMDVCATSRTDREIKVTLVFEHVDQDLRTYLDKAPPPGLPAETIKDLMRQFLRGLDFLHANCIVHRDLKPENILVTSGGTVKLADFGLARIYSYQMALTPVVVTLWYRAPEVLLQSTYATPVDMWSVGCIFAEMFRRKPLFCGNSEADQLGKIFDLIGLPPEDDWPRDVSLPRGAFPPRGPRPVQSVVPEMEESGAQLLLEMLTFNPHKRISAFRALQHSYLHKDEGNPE
cdk4/D, sequence (P24385 whole entry partner, species assumed): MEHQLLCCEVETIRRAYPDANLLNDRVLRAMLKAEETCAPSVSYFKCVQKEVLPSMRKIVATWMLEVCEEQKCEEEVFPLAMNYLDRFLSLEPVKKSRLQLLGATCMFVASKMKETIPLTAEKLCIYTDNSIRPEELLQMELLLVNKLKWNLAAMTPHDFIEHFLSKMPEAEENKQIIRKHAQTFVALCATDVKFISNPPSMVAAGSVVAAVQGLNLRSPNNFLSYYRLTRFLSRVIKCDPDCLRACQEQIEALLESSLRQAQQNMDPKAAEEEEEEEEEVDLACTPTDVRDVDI

In the case of `COc1ccc2cnc(Nc3ccc(N4CCC(N)C4)cc3)nc2c1C(C)C` (centres unmarked) [Example 37, [4-(3-Amino-pyrrolidin-1-yl)-phenyl]-(8-isopropyl-7-methoxy-quinazolin-2-yl)-amine], the half-maximal inhibitory concentration (IC50) against cdc2/cyclinB stood at 1300 nM; on cdk2/A, 296 nM; on cdk2/cyclinE, 2550 nM; at cdk4/D it was 11 nM.

On to `COc1ccc2cnc(Nc3ccc(N4CCN(C(=O)C(N)CC(C)C)CC4)cc3)nc2c1C1CCCC1` (centres unmarked) [Example 42, 2-Amino-1-{4-[4-(8-cyclopentyl-7-methoxy-quinazolin-2-ylamino)-phenyl]-piperazin-1-yl}-4-methyl-pentan-1-one], for which the melting point lay in the range of 130 to 132 °C. This compound yielded an IC50 against cdc2/cyclinB of 333 nM. Besides, the concentration for half-maximal inhibition (IC50) on cdk2/A was 103 nM. The half-inhibitory concentration (IC50) on cdk2/cyclinE amounted to 500 nM.

As for `COc1ccc2cnc(Nc3ccc(N4CCOCC4)c(F)c3)nc2c1C(C)C` [Example 38, (3-Fluoro-4-morpholin-4-yl-phenyl)-(8-isopropyl-7-methoxy-quinazolin-2-yl)-amine], the melting point is 202 to 203 °C. For the same compound, at cdc2/cyclinB, 1230 nM corresponded to half-maximal inhibition (IC50). The IC50 on cdk2/A is 451 nM. In addition, the IC50 on cdk2/cyclinE stood at 2750 nM.

For the compound `COc1ccc2cnc(Nc3ccc(N4CCCC4)cc3)nc2c1C1CCCC1` [Example 24, (8-Cyclopentyl-7-methoxy-quinazolin-2-yl)-(4-pyrrolidin-1-yl-phenyl)-amine], the melting point lay within 240 to 242 °C. The same compound showed an IC50 at cdc2/cyclinB greater than 5000 nM. This compound registered an IC50 against cdk4/D of 1750 nM.

As for `COc1ccc2cnc(Nc3ccc(N4CCOCC4)cc3)nc2c1C(C)C` [Example 39, (8-Isopropyl-7-methoxy-quinazolin-2-yl)-(4-morpholin-4-yl-phenyl)-amine], the IC50 at cdc2/cyclinB is 1970 nM; at cdk2/A, 665 nM; on cdk2/cyclinE, 4400 nM; against cdk4/D, 52 nM.

`COc1ccc2cnc(Nc3ccc(N4CCCCC4)c(F)c3)nc2c1C1CCCC1` [Example 49, (8-Cyclopentyl-7-methoxy-quinazolin-2-yl)-(3-Fluoro-4-piperidin-1-yl-phenyl)-amine] had a melting point of 200 to 201 °C. On cdc2/cyclinB, this compound displayed a concentration for half-maximal inhibition (IC50) greater than 5000 nM. In addition, the IC50 on cdk2/cyclinE came out at 8000 nM. In addition, the IC50 on cdk4/D (setting [1]) turned out to be 85 nM.

Regarding `COc1ccc2cnc(Nc3ccc(N4CCNCC4)cc3)nc2c1C(C)C` [Example 34, (8-Isopropyl-7-methoxy-quinazolin-2-yl)-(4-piperazin-1-yl-phenyl)-amine], the IC50 was determined as 506 nM on cdc2/cyclinB, 185 nM at cdk2/A, 1200 nM at cdk2/cyclinE and 16 nM against cdk4/D.

Turning to `COc1ccc2cnc(Nc3ccccc3)nc2c1C1CCCC1` [Example 17, (8-Cyclopentyl-7-methoxy-quinazolin-2-yl)-phenyl-amine], the melting point was 187 to 188 °C.

On to “(8-Isopropyl-7-methoxy-quinazolin-2-yl)-(4-piperidin-1-yl-phenyl)-amine [Example 47]”, for which the IC50 stood at 1070 nM against cdc2/cyclinB, 264 nM on cdk2/A, 4100 nM at cdk2/cyclinE and 75 nM on cdk4/D (setting [1]).

Consider `COc1ccc2cnc(Nc3ccc(N4CCNCC4)cc3)nc2c1C1CCCC1` [Example 27, (8-Cyclopentyl-7-methoxy-quinazolin-2-yl)-(4-piperazin-1-yl-phenyl)-amine], for which the IC50 stood at 132 nM against cdc2/cyclinB, 28 nM at cdk2/A, 250 nM on cdk2/cyclinE and 1 nM at cdk4/D (setting [1]).

Consider “(8-Isopropyl-7-methoxy-quinazolin-2-yl)-(4′-methoxy-biphenyl-4-yl)-amine [Example 36]”, for which the IC50 is greater than 5000 nM at cdk2/cyclinE and 225 nM at cdk4/D (setting [1]).

As for `COc1ccc2cnc(Nc3ccc(N4CCN(C(C)=O)CC4)cc3)nc2c1C(C)C` [Example 33, 1-{4-[4-(8-Isopropyl-7-methoxy-quinazolin-2-ylamino)-phenyl]-piperazin-1-yl}-ethanone], the melting point fell in the range of 197 to 198 °C. Moreover, at cdk2/cyclinE, the IC50 came to 900 nM. At cdk4/D, the IC50 worked out at 25 nM.
